# From PubChem BioAssay AID1259371 (The Scripps Research Institute Molecular Screening Center, 2018)
# Activity calls are given as the source filed them. No rule for the calls is given here.
# Molecular target: Microphthalmia-associated transcription factor (Homo sapiens) (UniProt O75030)
# Experiment: compounds blocking human MITF signal – biochemical, AlphaScreen, dose response (AID 1259371)
# Details: AlphaScreen biochemical MITF assay, signal inhibition
# Chain of Microphthalmia-associated transcription factor (Homo sapiens) (O75030 whole entry, looked up): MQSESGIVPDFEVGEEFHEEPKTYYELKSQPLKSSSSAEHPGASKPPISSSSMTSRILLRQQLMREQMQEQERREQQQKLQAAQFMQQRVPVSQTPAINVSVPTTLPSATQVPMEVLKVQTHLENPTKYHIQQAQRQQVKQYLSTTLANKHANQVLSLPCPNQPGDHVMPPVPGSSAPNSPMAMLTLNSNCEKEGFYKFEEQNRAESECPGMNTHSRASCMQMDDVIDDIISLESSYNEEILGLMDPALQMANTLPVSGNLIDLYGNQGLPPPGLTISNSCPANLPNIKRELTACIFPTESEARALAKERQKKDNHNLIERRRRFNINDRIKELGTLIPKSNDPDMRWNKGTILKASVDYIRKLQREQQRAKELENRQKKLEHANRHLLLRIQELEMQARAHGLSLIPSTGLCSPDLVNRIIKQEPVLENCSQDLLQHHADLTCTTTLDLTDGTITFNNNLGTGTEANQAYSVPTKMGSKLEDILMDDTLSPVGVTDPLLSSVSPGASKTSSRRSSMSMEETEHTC
row,SMILES,IC50
1,NC(=O)CSc1ccc(C(N)=O)cc1[N+](=O)[O-],inactive
2,COc1cccc(COC(=O)Nc2cc(F)c(-c3cn[nH]c3)cc2OCCN(C)C)c1,inactive
3,O=C(O)c1ccc(-n2cccc2)cc1Cl,626 nM
4,COc1ccc2c(c1)CC(C(=O)Nc1ccc(-c3cn[nH]c3)cc1OCC(N)=O)CO2 (centres undefined),inactive
5,O=C(OC1CCOC1=O)c1cc(-c2ccco2)nc2ccccc12 (centres undefined),338 nM
6,C/C(=N\Nc1ccc(S(=O)(=O)O)cc1)c1ccc([N+](=O)[O-])o1,> 2160 nM (inactive)
7,Cc1[nH][nH]c(=O)c1C(c1ccccc1OCc1ccc(Br)cc1)c1c(C)[nH][nH]c1=O,inactive
8,c1ccc(COc2ccc(OCCCCn3ccnc3)cc2)cc1,> 6480 nM (inactive)
9,Clc1ccc2c(c1)CC(c1nc(Nc3cncnc3)c3ccccc3n1)CO2 (centres undefined),inactive
10,Cc1ccc(COc2ccc(/C=N/N=C3\NC(=O)C(CC(=O)O)S3)cc2)cc1 (centres undefined),inactive
11,O=C1N[C@@H](COCc2ccccc2)C(=O)N2CCN(C(=O)NCc3ccccc3)C[C@H]12,inactive
12,O=C(Nc1cc(S(=O)(=O)O)cc2cc(S(=O)(=O)O)cc(O)c12)c1ccccc1,951 nM
13,O=C(Nc1ccc(N2CCOCC2)cc1)c1ccnc(Nc2ncccn2)c1,inactive
14,O=C(O)CCN(CCC(=O)O)c1ccc(O)cc1,138 nM
15,NC1(C(Cl)(Cl)Cl)Oc2ccccc2O1,232 nM
16,O=c1[nH]c(-c2ccco2)nc2sc3c(c12)CCCC3,42.3 nM
17,CC(=O)CC1=C(C(=O)O)N2C(=O)C(N)C2SC1 (centres undefined),> 6480 nM (inactive)
18,O=C(O)c1cc(-c2ccco2)nc2ccccc12,inactive
19,Cc1ccc(N[C@@H]2OC[C@@H](O)C(O)C2O)cc1N[C@@H]1OC[C@@H](O)C(O)C1O (some centres undefined),inactive
20,CC(C)[C@@H]1NC(=O)[C@H]2CN(C(=O)NCc3ccccc3)CCN2C1=O,819 nM
21,Cc1cccc(CN2CCN(S(=O)(=O)c3ccccc3[N+](=O)[O-])CC2)c1,> 5080 nM (inactive)
22,O=C(Nc1ccc(N2CCOCC2)cc1)c1ccc2nc(-c3cccs3)sc2c1,inactive
23,CC[C@H](C)[C@@H]1NC(=O)[C@H]2CN(C(=O)Nc3cccc(F)c3)CCN2C1=O,inactive
24,C/C(=N\NC(=O)Cc1cc(=O)[nH][nH]1)c1ccco1,inactive
25,CN1C(=O)[C@H]2CN(C(=O)NC3CCCCC3)CCN2C(=O)[C@@H]1Cc1ccccc1,inactive
26,O=C(COc1ccccc1C(=O)OC1CCCC1=O)Nc1cccc(C(F)(F)F)c1 (centres undefined),inactive

row,SMILES,IC50
1,O=C(/C=C/c1ccco1)NCc1cccc(CNC(=O)/C=C/c2ccco2)c1,115 nM
2,O=C(C1CCC(Nc2nccc(-c3ccc4nc(C5CC5)[nH]c(=O)c4c3)n2)CC1)N1CCCC1 (centres undefined),inactive
3,CCc1ccc(NC(=O)CCc2nc(C3=CCN(C)CC3)no2)cc1,inactive
4,CC(C)N(C)CCOC(=O)/C=C/c1ccco1,inactive
5,Cc1cc(C)nc(NS(=O)(=O)c2ccc(N3C(=O)C=CC3=O)cc2)n1,> 2160 nM (inactive)
6,Cc1n[nH]c(=O)nc1NNc1ccc(C(=O)O)cc1,inactive
7,O=C(c1cccc(F)c1)N1CCN(Cc2ccncc2)CC1,> 5660 nM (inactive)
8,CCCCCCCCCCCCCCCC(=O)OC[C@H](O)[C@H]1OC(=O)C(=O)C1O (some centres undefined),inactive
9,CN(C)/C=C/C=C/C=C/C(=O)c1ccc(C(=O)/C=C/C=C/C=C/N(C)C)cc1,96.7 nM
10,O=P(O)(O)C(O)(CCNC(=S)Nc1ccccc1)P(=O)(O)O,inactive
11,COc1ccc(C[C@@H]2NC(=O)[C@H]3CN(C(=O)NCc4ccccc4)CCN3C2=O)cc1,inactive
12,CCOc1ncccc1C(=O)OCC(=O)Nc1oc(-c2ccco2)c(-c2ccco2)c1C#N,557 nM
13,CN(CCc1ccccn1)Cc1ccc(F)cc1,inactive
14,Cn1c(SCc2cc(=O)n3c(n2)sc2ccccc23)nnc1C(F)(F)F,inactive
15,O=C(O)COc1ccc(-n2cccc2)cc1,324 nM
16,CN(C)CCNc1nc(C2COc3ccccc3O2)nc2ccc(-c3cn[nH]c3)cc12 (centres undefined),inactive
17,CN(C)C1C(=O)C(C(N)=O)=C(O)C2(O)C(=O)C3=C(O)c4c(O)cccc4C(C)(O)C3CC12 (centres undefined),> 6480 nM (inactive)
18,O=C1NC(=O)/C(=C\c2ccc(O)cc2O)S1,inactive
19,CCOC(=O)N1CCC(NC(=O)CCc2nc(C3=CCN(C)CC3)no2)CC1,inactive
20,O=C(Cn1ncn2cccc2c1=O)N1CCc2ccccc2C1,> 6480 nM (inactive)
21,Cc1[nH][nH]c(=O)c1C(c1ccc([N+](=O)[O-])o1)c1c(C)[nH][nH]c1=O,> 6480 nM (inactive)
22,NC(=O)c1ccc(-c2cccs2)s1,> 7320 nM (inactive)
23,O=C(CSc1nsc(SCC(=O)Nc2ccc(Cl)c(Cl)c2)n1)Nc1ccc(Cl)c(Cl)c1,inactive
24,O=C(NNC(=O)c1cc(-c2ccco2)nc2ccccc12)NC1CCCCC1,126 nM
25,O=C(NCC(c1cccs1)S(=O)(=O)c1ccc(Cl)cc1)c1ccco1 (centres undefined),inactive
26,CCC(C)NCCOc1cccc(Br)c1 (centres undefined),> 6480 nM (inactive)

row,SMILES,IC50
1,N#C/C(=C(/O)COC(=O)c1cc2c(s1)CCC2)c1nc2ccccc2[nH]1,693 nM
2,COc1ccc(OC)c(CN2CCN(Cc3ccc(F)cc3)CC2)c1,> 6110 nM (inactive)
3,Cc1ccn2c(NCC3CCCO3)c(-c3ccc(O)cc3O)nc2c1 (centres undefined),80.9 nM
4,CCCCNCCOc1ccccc1OCC,> 6480 nM (inactive)
5,COCCCNC(=O)/C(C#N)=C/c1ccc(-c2ccc(C(=O)O)c(Cl)c2)o1,inactive
6,CN(c1cccc(NS(=O)(=O)c2ccc([N+](=O)[O-])cc2)c1)S(C)(=O)=O,> 6480 nM (inactive)
7,N#Cc1cc([N+](=O)[O-])ccc1NC(=O)COC(=O)c1cc(-c2ccco2)nc2ccccc12,inactive
8,O=Cc1cccn1-c1ccc(C(=O)O)cc1,inactive
9,O=C(O)c1cc(S(=O)(=O)Nc2ccc(-n3cnnn3)cc2)ccc1O,inactive
10,Cc1cccc(C(=O)Nc2c3c(nn2-c2ccc(F)cc2)CSC3)c1,> 5530 nM (inactive)
11,O=C1N[C@@H](CSCc2ccccc2)C(=O)N2CCN(C(=O)NCc3ccccc3)C[C@H]12,394 nM
12,Cc1occc1C(=O)N/N=C/C=C/c1ccco1,11.2 nM
13,O=S(=O)(N=S(=O)(/C=C/c1ccccc1)c1ccccc1)c1ccccc1 (centres undefined),> 5360 nM (inactive)
14,O=S(=O)(O)c1ccc(N/N=C2\CCc3ccccc32)cc1,> 2160 nM (inactive)
15,C/C(N)=C(/C#N)C(=O)COC(=O)c1c2c(nc3ccccc13)/C(=C/c1ccco1)CC2,443 nM
16,O=C(NCC(O)C(=O)N1CCOCC1)c1cccc(Nc2ccc3[nH]ncc3c2)n1 (centres undefined),inactive
17,Cc1cc(C)n2nc(N)c(N)c2n1,> 11600 nM (inactive)
18,Nc1cc2c(S(=O)(=O)O)cc(S(=O)(=O)O)cc2cc1S(=O)(=O)O,> 6480 nM (inactive)
19,COc1cccc(C(=O)N2CCN(Cc3cccc(Cl)c3)CC2)c1,> 4800 nM (inactive)
20,COc1ccc2c3c(cccc13)C(=O)N(C)C2=O,inactive
21,Cc1ccc(C(=O)N/C(=C/c2ccc([N+](=O)[O-])o2)C(=O)O)cc1,inactive
22,O=C(O)c1cccc2c1C(=O)N(c1ccccc1)C2,inactive
23,Cc1ccc(/C(C#N)=C\c2ccco2)cc1,inactive
24,O=C1S/C(=C\c2ccco2)C(=O)N1c1ccccc1Cl,809 nM
25,CN(C)CCS(=O)c1cc(-c2cn[nH]c2)ccc1NC(=O)[C@H]1Cc2cc(F)ccc2CN1 (some centres undefined),inactive
26,Cc1c(NC(=O)C(C)OC(=O)c2cc3c(s2)CCC3)c(=O)n(-c2ccccc2)n1C (centres undefined),953 nM

row,SMILES,IC50
1,O=C(O)c1cccc(N2C(=O)CC(Nc3ccc(N4CCOCC4)cc3)C2=O)c1 (centres undefined),242 nM
2,O=S(=O)(O)c1cc(S(=O)(=O)O)c2cc(O)c(S(=O)(=O)O)cc2c1,156 nM
3,O=[N+]([O-])c1c(Br)ccc2c1no[n+]2[O-],inactive
4,COc1ccc(CN2CCN(Cc3cccc(Cl)c3)CC2)cc1Br,inactive
5,O=C(O)c1cc2ncc(-c3n[nH]c(-c4cnc5cc(C(=O)O)nn5c4)c3[N+](=O)[O-])cn2n1,641 nM
6,N=C1S/C(=C\c2ccco2)C(=O)N1c1nonc1N,34 nM
7,CCOC(=O)C1C2NC(=S)N(c3ccc(C)cc3)C1(C)Oc1c(OCC)cccc12 (centres undefined),> 4890 nM (inactive)
8,O=C1OC(c2cccc([N+](=O)[O-])c2)=N/C1=C\c1ccc(OCc2ccccc2)cc1,> 4620 nM (inactive)
9,O=C(O)c1coc(CNC(=O)c2cocc2C(=O)O)c1,inactive
10,Cc1cc(NC(=O)C2CCN(C(=O)c3ccc(-n4cccc4)cc3)CC2)no1,inactive
11,Cc1ccc(NC(=O)COC(=O)CCC(=O)Nc2sc3c(c2C(N)=O)CCC3)cc1F,inactive
12,CCN(CC)CC(=O)Nc1ccc(OC)cc1,> 6480 nM (inactive)
13,Cc1cc(N=Cc2ccc([N+](=O)[O-])o2)ccc1S(=O)(=O)O,inactive
14,Nc1cccc(N2C(=O)c3cc(S(=O)O)cc4c(N)c(S(=O)O)cc(c34)C2=O)c1,inactive
15,COc1cc(/C=C2\C(C)=C([N+](=O)[O-])CS2(=O)=O)ccc1O,30.8 nM
16,O=C(NCc1ccccc1)N1CCN2C(=O)[C@H]3CCCN3C(=O)[C@H]2C1,inactive
17,O=C(O)c1ccc(NC2OC(CO)C(O)C2O)cc1 (centres undefined),inactive
18,c1cc2c(cc1CNc1nc(Nc3ccc(N4CCOCC4)cc3)c3ncn(C4CCCCC4)c3n1)OCO2,inactive
19,O=C(OC1CCCC1=O)c1ccc(S(=O)(=O)N2CCCCC2)cc1 (centres undefined),inactive
20,O=C(c1ccncc1)N1C2C=CC(C2)C1(C(F)(F)F)C(F)(F)F (centres undefined),inactive
21,O=C(N/N=C/C=C/c1ccco1)c1ccncc1,24.5 nM
22,O=C(/C=C/c1ccco1)NC(=S)Nc1cc(C(=O)O)ccc1Cl,146 nM
23,Cc1ccc(-c2nnc3s/c(=C\c4ccco4)c(=O)n23)cc1,inactive
24,O=C1Nc2ccc(S(=O)(=O)NCc3ccccc3)cc2C1=O,inactive
25,CCC[C@@H]1NC(=O)[C@H]2CN(C(=O)NC3CCCCC3)CCN2C1=O,757 nM
26,COC(=O)C1=C(C(=O)OC)C2c3ccccc3C=CN2C(C(=O)OC)=C1C(=O)OC (centres undefined),> 4070 nM (inactive)
